“And” between values parts separate entries of the source, which are not always exact repeats. Equal entries are not always repeated. Where two headings read alike, the source gives them in different places. Marks after values point to notes of the source that are not given here.
Legend:
[1] = tested on: T. cruzi bloodstream trypomastigotes; test: In vivo infectivity in Swiss mice of blood samples infected with bloodstream trypomastigotes pre-treated with AIAs or CV; set-up: species or system Trypanosoma cruzi; conditions: for suppression of the parasite load (parasitemia): both genders; for Clearance of the Parasitemia / Clearance of the Parasitemia after cyclophosphamide administration: cleared mice/total
Procedure: Male and female Swiss Webster mice (18–20 g) were obtained from the Fundação Oswaldo Cruz animal facilities (ICTB, Rio de Janeiro, Brazil). Mice were housed at a maximum of five per cage, kept in a specific pathogen-free (SPF) room at 20 to 24 °C under a 12-h/12 h light/dark cycle and provided sterilized water and chow ad libitum. The animals were allowed to acclimate for 7 days before the start of the experiments.
For evaluation of the chemoprophylactic potential of the AIAs and CV in vivo, the mice were inoculated (via i.p.) with 10^4 trypomastigotes into 200 µL of: (a) infected untreated blood samples; (b) infected using blood samples pre-treated for 2 h with the compounds at a concentration corresponding either to their EC50 or with 96 µM of one of the AIAs.
Parasitemia of individual mice was daily checked (until 10 dpi, and then, twice a week) by direct microscopic counting of parasites in 5 µL of blood taken via tail prick. Body weight was evaluated weekly, and mortality was checked daily until 40 days post-treatment and expressed as the percentage of survival. Thirty days after treatment the animals were immunosuppressed with cyclophosphamide (50 mg/kg) in three cycles of 4 consecutive days/week and the parasitemia and mortality rates were evaluated for 4 weeks.

[2] = tested on: bloodstream trypomastigotes of Trypanosoma cruzi; conditions: cited from earlier work; for fold more effective than crystal violet (trypanocidal activity): 4 °C in the presence of 96% mouse blood
[3] = tested on: mouse blood cells; assay type: cell-based; conditions: Swiss Webster, 24 h
Procedure: In 96-well microplates, 100 µL of the mouse blood suspension was added to the same volume of DB745 or DB766 at concentrations ranging from 2.4 to 192 µM. After incubation at 4 °C for 24 h, the samples were centrifuged (5 min/540× g) and a 100 µL aliquot was transferred to another microplate and the levels of hemoglobin measured at 540 nm. Deionized water was used as control for 100% hemolytic activity, and PBS as a negative control. The degree of hemolysis was calculated by the variation index (VI) that corresponds to the ratio of optical density (OD) of the treated sample/positive control. The reading of the OD of the samples was performed in the SpectraMax® Plus 384 Absorbance Plate Reader spectrophotometer (540 nm) and duplicate samples were run in at least two assays.

[4] = tested on: bloodstream trypomastigotes (BT) of Trypanosoma cruzi; test: In vitro infectivity of bloodstream trypomastigotes pre-treated with AIAs in cardiac cell cultures; assay type: cell-based; conditions: for Par./Infected CC / II (infection index = % infection × parasites/infected CM) / % Infection: BT pre-treated 2 h at EC50 (DB745 6.4 μM, DB766 1.14 μM)
Procedure: Bloodstream trypomastigote (BT) forms of the Y strain were obtained from infected male Swiss mice, at peak parasitemia. The purified parasites were resuspended in Dulbecco’s modified Eagle’s medium (DME) supplemented with 10% FBS (DMES). […] Then, the parasite suspensions were centrifuged (3000 rpm/10 min) and the pellet resuspended in RPMI, quantified through light microscopy, and used for the infection of Swiss embryo mouse cardiac cell cultures (CC) seeded (15 × 10^4 cells/well) in 24-well plates (10:1 parasite–cell ratio). After 24 h of parasite–host cell interaction, the infected cultures were washed to remove free parasites and maintained at 37 °C in an atmosphere of 5% CO2 and air and the culture medium replaced every 24 h. Afterwards, untreated and treated infected cardiac cells (CCs) were fixed and stained with Giemsa and examined via light microscopy. Only characteristic T. cruzi nuclei and kinetoplasts were counted as surviving parasites since irregular structures could mean parasites undergoing death. The activity of the AIAs was estimated by calculating the infection index (II), which corresponds to the percentage of infected cells multiplied by the average number of intracellular parasites per infected host cell. Duplicate assays were run in the same plate and at least two independent assays were performed as standard.

[5] = experiment # 1, inoculum pre-treated 2 h at 96 μM, male Swiss mice, n = 5, vehicle 261.1 ± 124.6
[6] = experiment # 1, inoculum pre-treated 2 h at EC50, male Swiss mice, n = 5, vehicle 261.1 ± 124.6
[7] = experiment # 1, pre-treatment at 96 μM
[8] = experiment # 1, pre-treatment at EC50
[9] = experiment # 2, inoculum pre-treated 2 h at 96 μM, male Swiss mice, n = 5, vehicle 277.9 ± 57.2
[10] = experiment # 2, inoculum pre-treated 2 h at EC50, male Swiss mice, n = 5, vehicle 277.9 ± 57.2
[11] = experiment # 2, pre-treatment at 96 μM
[12] = experiment # 2, pre-treatment at EC50
[13] = female Swiss mice, n = 10, inoculum pre-treated at 96 µM, vehicle 247.7 ± 25.3
[14] = female mice, 96 µM, untreated 0%
[15] = male Swiss mice, n = 10, inoculum pre-treated at 96 µM, vehicle 209.8 ± 29.2
[16] = 2 h incubation, infected mouse blood, read-out: EC50
[17] = 24 h of parasite-host cell interaction, untreated 23.4 ± 5.5

| Clearance of the Parasitemia [1, 8] | Clearance of the Parasitemia [1, 12] | OD ([3]; 3.9 μM) | VI (variation index = OD(treated)/OD(control)) ([3]; 3.9 μM) | OD ([3]; 10.6 μM) | VI (variation index = OD(treated)/OD(control)) ([3]; 10.6 μM) | SMILES | suppression of the parasite load (parasitemia) ([1]; 96 µM) | Parasitemia at 8 dpi [1, 5] | Parasitemia at 8 dpi [1, 6] | Clearance of the Parasitemia [1, 7] | Parasitemia at 8 dpi [1, 9] | Parasitemia at 8 dpi [1, 10] | Clearance of the Parasitemia [1, 11] | Parasitemia at 8 dpi [1, 13] | Clearance of the Parasitemia after cyclophosphamide administration ([1]; female Swiss mice, 96 µM) | animal survival [1, 14] | Parasitemia at 8 dpi [1, 15] | Clearance of the Parasitemia after cyclophosphamide administration ([1]; male Swiss mice, 96 µM) | animal survival ([1]; male mice, 96 µM, untreated 0%) | fold more effective than crystal violet (trypanocidal activity) [2] | further results |
| --- | --- | --- | --- | --- | --- | --- | --- | --- | --- | --- | --- | --- | --- | --- | --- | --- | --- | --- | --- | --- | --- |
| 0/5 | 0/5 | 0.248 ± 0.018 | 0.094 | 0.200 ± 0.034 | 0.076 | CC(C)Oc1cc(NC(=N)c2ccccn2)ccc1-c1ccc(-c2ccc(NC(=N)c3ccccn3)cc2OC(C)C)o1 [DB766] | – | 7.9 ± 5.2 ×10^4 Parasites/mL | 141.3 ± 152.7 ×10^4 Parasites/mL | 0/5 | 0.7 ± 1.1 ×10^4 Parasites/mL | 170.5 ± 39 ×10^4 Parasites/mL | 0/5 | – | – | – | – | – | – | at least 30 fold | OD ([3]; 32 μM): 0.230 ± 0.051; VI (variation index = OD(treated)/OD(control)) ([3]; 32 μM): 0.088; OD ([3]; 96 μM): 0.317 ± 0.069; VI (variation index = OD(treated)/OD(control)) ([3]; 96 μM): 0.121 *; EC50 [2, 16]: 1140 nM; Par./Infected CC ([4]; 24 h, untreated 1.6 ± 0.5): 0.5 ± 0.7; II (infection index = % infection × parasites/infected CM) ([4]; 24 h, untreated 38 ± 16): 0.5 ± 2.1; decrease in number of parasites per infected host cell ([4]; 24 h of CC infection, BT pre-incubated at EC50): 69%; % Infection [4, 17]: 1% and 1.0 ± 1.5 %; Par./Infected CC ([4]; 72 h, untreated 17.7 ± 1.7): 0.3 ± 0.4; % Infection ([4]; 72 h, untreated 26.3 ± 2.3): 0.1% and 0.1 ± 0.2%; II (infection index = % infection × parasites/infected CM) ([4]; 72 h, untreated 466 ± 49): 0.03 ± 0.2; decrease in number of parasites per infected host cell ([4]; 72 h of CC infection, BT pre-incubated at EC50): 98%; reduction in the II ([4]; BT pre-incubated at EC50): > 99% |
| – | – | – | – | – | – | CN(C)c1ccc(C(=C2C=CC(=[N+](C)C)C=C2)c2ccc(N(C)C)cc2)cc1 [CV, crystal violet, reference compound] | > 99% | 34.7 ± 38.5 ×10^4 Parasites/mL | – | 0/5 | 1.6 ± 1.7 ×10^4 Parasites/mL | – | 0/5 | 0 ± 0 10^4 parasites/mL | 3/10 | 90% | 0.1 ± 0.2 10^4 parasites/mL | 4/10 | 60% | – | – |
| 0/5 | 0/5 | 0.215 ± 0.037 | 0.082 | 0.184 ± 0.014 | 0.070 | CCOc1cc(NC(=N)c2ccccn2)ccc1-c1ccc(-c2ccc(NC(=N)c3ccccn3)cc2OCC)o1 [DB745] | – | 4.6 ± 2.4 ×10^4 Parasites/mL | 156.4 ± 31.1 ×10^4 Parasites/mL | 0/5 | 1.3 ± 1.1 ×10^4 Parasites/mL | 4.2 ± 2.1 ×10^4 Parasites/mL | 0/5 | – | – | – | – | – | – | at least 30 fold | reduction of parasitemia peak ([1]; inoculum pre-treated at EC50, male Swiss mice): > 98%; OD ([3]; 1.2 μM): 0.220 ± 0.063; VI (variation index = OD(treated)/OD(control)) ([3]; 1.2 μM): 0.084; OD ([3]; 32 μM): 0.195 ± 0.007; VI (variation index = OD(treated)/OD(control)) ([3]; 32 μM): 0.074; OD ([3]; 96 μM): 0.206 ± 0.004; VI (variation index = OD(treated)/OD(control)) ([3]; 96 μM): 0.078; EC50 [2, 16]: 6400 nM; Par./Infected CC ([4]; 24 h, untreated 1.6 ± 0.5): 1.4 ± 0.3; II (infection index = % infection × parasites/infected CM) ([4]; 24 h, untreated 38 ± 16): 10 ± 4.4; % Infection [4, 17]: 7.3 ± 3.4 %; Par./Infected CC ([4]; 72 h, untreated 17.7 ± 1.7): 18.6 ± 2.4; % Infection ([4]; 72 h, untreated 26.3 ± 2.3): 14.6 ± 0.2%; II (infection index = % infection × parasites/infected CM) ([4]; 72 h, untreated 466 ± 49): 272 ± 39; effect on parasite multiplication (parasites per infected host cell) ([4]; BT pre-incubated at EC50): only slightly impaired the parasite multiplication |

| SMILES | Clearance of the Parasitemia [1, 8] | Clearance of the Parasitemia [1, 12] | OD ([3]; 3.9 μM) | VI (variation index = OD(treated)/OD(control)) ([3]; 3.9 μM) | OD ([3]; 10.6 μM) | VI (variation index = OD(treated)/OD(control)) ([3]; 10.6 μM) | suppression of the parasite load (parasitemia) ([1]; 96 µM) | Parasitemia at 8 dpi [1, 5] | Parasitemia at 8 dpi [1, 6] | Clearance of the Parasitemia [1, 7] | Parasitemia at 8 dpi [1, 9] | Parasitemia at 8 dpi [1, 10] | Clearance of the Parasitemia [1, 11] | Parasitemia at 8 dpi [1, 13] | Clearance of the Parasitemia after cyclophosphamide administration ([1]; female Swiss mice, 96 µM) | animal survival [1, 14] | Parasitemia at 8 dpi [1, 15] | Clearance of the Parasitemia after cyclophosphamide administration ([1]; male Swiss mice, 96 µM) | animal survival ([1]; male mice, 96 µM, untreated 0%) | fold more effective than crystal violet (trypanocidal activity) [2] | further results |
| --- | --- | --- | --- | --- | --- | --- | --- | --- | --- | --- | --- | --- | --- | --- | --- | --- | --- | --- | --- | --- | --- |
| CC(C)Oc1cc(NC(=N)c2ncccn2)ccc1-c1ccc(-c2ccc(NC(=N)c3ncccn3)cc2OC(C)C)o1 [DB1831] | 0/5 | 0/5 | – | – | – | – | > 99% | 0.0 ± 0.0 ×10^4 Parasites/mL | 366.2 ± 295.1 ×10^4 Parasites/mL | 2/5 | 0.0 ± 0.0 ×10^4 Parasites/mL | 157.7 ± 55.9 ×10^4 Parasites/mL | 4/5 | 0.1 ± 0.5 10^4 parasites/mL | 2/10 | 100% | 0.0 ± 0.0 10^4 parasites/mL | 7 out of 10 and 7/10 | 90% | at least 30 fold | infected mice with complete clearance of parasitemia ([1]; 96 µM, even after immune suppression with cyclophosphamide): 60%; animal survival ([1]; 96 µM, vehicle treated samples 0%): ≥ 90%; EC50 ([2]; used as inoculation pre-treatment concentration (Table 3 footnote a), read-out: EC50/2 h): 500 nM |

Reference: PMC10224031, “Arylimidamides Have Potential for Chemoprophylaxis against Blood-Transmitted Chagas Disease” (Pathogens, 2023)
